Experimental data published in ChEMBL document CHEMBL1153491, “Discovery of CYT997: a structurally novel orally active microtubule targeting agent” (Bioorg Med Chem Lett, 2009).
Activity calls are given as the source filed them. The calls are words filed in the database; no cut-off is given here.

Experiments:
[1] = test system: DU-145; experiment: Cytotoxicity against human DU145 cells after 72 hrs by MTT assay; type: functional, cell-based; settings: DU-145, 72 h
[2] = test system: PC-3; experiment: Cytotoxicity against human PC3 cells after 72 hrs by MTT assay; type: functional, cell-based; settings: PC-3, 72 h
[3] = Cmax in rat at 25 mg/kg, po; type: ADME, organism-based; design: dose 25 mg/kg, route oral; settings: in vivo
[4] = Oral bioavailability in rat at 25 mg/kg, po; type: ADME, organism-based; settings: in vivo
[5] = Half life in rat at 5 mg/kg, iv; type: ADME, organism-based; design: dose 5 mg/kg, route intravenous; settings: in vivo
[6] = Apparent volume of distribution in rat at 5 mg/kg, iv; type: ADME, organism-based; design: dose 5 mg/kg, route intravenous; settings: in vivo, read-out: Vz
[7] = Clearance in rat at 5 mg/kg, iv; type: ADME, organism-based; design: dose 5 mg/kg, route intravenous; settings: in vivo
[8] = test system: PC-3; experiment: Disruption of microtubule network in human PC3 cells after 1 hr; type: functional, cell-based
[9] = test system: PC-3; experiment: Cell cycle arrest in human PC3 cells assessed as accumulation in G2/M phase after 1 hr; type: functional, cell-based
[10] = species on record: Bos taurus; experiment: Inhibition of bovine tubulin polymerization at 3 uM
[11] = Half life in rat at 5 mg/kg, iv in presence of captisol; type: ADME, organism-based; design: dose 5 mg/kg, route intravenous; settings: in vivo
[12] = Apparent volume of distribution in rat at 5 mg/kg, iv in presence of captisol; type: ADME, organism-based; design: dose 5 mg/kg, route intravenous; settings: in vivo, read-out: Vz
[13] = Clearance in rat at 5 mg/kg, iv in presence of captisol; type: ADME, organism-based; design: dose 5 mg/kg, route intravenous; settings: in vivo

| SMILES | IC50 [1] [nM] | IC50 [2] [nM] | further results |
| --- | --- | --- | --- |
| CCC[C@H](Nc1cc(-c2ccc(NC(=O)NCC)c(OC)c2)ncn1)c1cccnc1 | 100 | 100 | – |
| CCCC(Nc1cncc(-c2ccc(O)c(OC)c2)n1)c1cccnc1 (stereo not drawn) | 600 | 300 | – |
| CCC[C@H](Nc1cc(C)nc(-c2ccc(NC(=O)NCC)c(OC)c2)n1)c1cccnc1 | 200 | 200 | – |
| CCCC(Nc1cncc(-c2ccc(NC(=O)NCC)c(OC)c2)n1)c1cccnc1 (stereo not drawn) | 60 | 40 | – |
| CCCC(Nc1cncc(-c2ccc(O)c(OCC)c2)n1)c1cccnc1 (stereo not drawn) | – | 1000 | – |
| CC[C@H](Nc1cncc(-c2ccc(O)c(OC)c2)n1)c1ccccc1 | 10000 | 10000 | – |
| CCC[C@H](Nc1nc(-c2ccc(NC(=O)NCC)c(OC)c2)ncc1C)c1cccnc1 [LEXIBULIN] | 60 | 60 | Cmax [3]: 9.4 µM; bioavailability [4]: 78%; half-life [5]: 1.6 h; Vd [6]: 5.2 L/kg; clearance [7]: 36.8 mL/min/kg |
| COc1cc(-c2cncc(N[C@@H](C)c3ccccc3)n2)ccc1O | 3000 | 10000 | – |
| CCCC(=O)Nc1ccc(-c2cncc(NC(CCC)c3cccnc3)n2)cc1OC (stereo not drawn) | – | 600 | – |
| CCCC(Nc1cncc(-c2ccc(O)c(OC(C)C)c2)n1)c1cccnc1 (stereo not drawn) | 10000 | 10000 | – |
| CCCC(Nc1cncc(-c2ccc(O)c(OC)c2)n1)c1cccc(F)c1 (stereo not drawn) | 300 | 600 | – |
| CCCC(Nc1cncc(-c2ccc(O)c(OC)c2)n1)c1ccc(F)cc1 (stereo not drawn) | 4000 | – | – |
| CCC[C@H](Nc1cc(-c2ccc(NC(=O)NCC)c(OC)c2)nc(C)n1)c1cccnc1 | 100 | 80 | – |
| CCC[C@H](Nc1cncc(-c2ccc(O)c(OC)c2)n1)c1ccccc1 | 200 | 160 | – |
| CCCC(Nc1cncc(-c2ccc(O)c(OC)c2)n1)c1cccc(Cl)c1 (stereo not drawn) | 600 | 1000 | – |
| CCC[C@H](Nc1ccnc(-c2ccc(NC(=O)NCC)c(OC)c2)n1)c1cccnc1 | 200 | 150 | – |
| CCCC(Nc1cncc(-c2ccc(O)c(OC)c2)n1)c1cccc(OC)c1 (stereo not drawn) | 1000 | 10000 | – |
| CCC[C@H](Nc1cncc(-c2ccc(NC(=O)NCC)c(OC)c2)n1)c1cccnc1 | – | – | Activity [8]: Active; Activity [9]: Active; inhibition [10]: Active; half-life [11]: 0.6 h; Vd [12]: 7.1 L/kg; clearance [13]: 127 mL/min/kg |
| CCCC(Nc1cncc(-c2ccc(NC(C)=O)c(OC)c2)n1)c1cccnc1 (stereo not drawn) | – | 5000 | – |
| CCCC(Nc1cncc(-c2ccc(NC(=O)NCC)c(CC)c2)n1)c1cccnc1 (stereo not drawn) | 100 | 160 | – |
| CCCC(Nc1cncc(-c2ccc(O)c(OC)c2)n1)c1ccccc1 (stereo not drawn) | 500 | 160 | – |
| CCCC(Nc1cncc(-c2ccc(O)c(OC)c2)n1)c1ccc(Cl)cc1 (stereo not drawn) | 10000 | 20000 | – |
| CCCC(Nc1cncc(-c2ccc(NC(=O)NCCN(C)C)c(OC)c2)n1)c1cccnc1 (stereo not drawn) | 1000 | 1000 | – |
| CCCC(Nc1cncc(-c2ccc(O)c(OC)c2)n1)c1ccc(OC)cc1 (stereo not drawn) | 3000 | 3000 | – |
